From PMC9081329, “Pharmacokinetics, Mass Balance, Excretion, and Tissue Distribution of Plasmalogen Precursor PPI-1011” (Frontiers in Cell and Developmental Biology, 2022)

Test: Single dose tissue distribution study (QWBA, LSC of blood and plasma)
Assay type: in vivo, Sprague-Dawley rats
Experimental: Six male rats were administered a single oral dose of [^14C]PPI-1011 at 100 mg/kg (200 μCi/kg) and one rat was sacrificed at each of the following time points after the administration of the dose: 8, 12, 18, 24, 48, or 168 h. Terminal blood was collected by cardiac puncture directly into tubes with K2EDTA, an aliquot was stored at 4°C until LSC was performed for radioactivity, while the remaining blood was processed to plasma and stored at −20°C until LSC. Following blood collection, the carcasses were frozen in a cold bath with hexanes and dry ice for at least 8 min and then dried and stored at −70°C for at least 5 h. The carcasses were transferred to a −20°C freezer for at least 12 h before embedding.
QWBA was used to determine radioactivity concentrations in the caecum (contents and mucosa), large intestine (contents and mucosa), small intestine (contents and mucosa), stomach (contents and mucosa), brain, choroid plexus, spinal cord, bone, skin, adrenal gland, pineal body, pituitary gland, thyroid gland, liver, kidney (cortex, medulla and whole kidney), urinary bladder (contents and wall), brown fat, white fat, eye (lens, uveal tract and whole eye), epididymis, prostate gland, testis, ovary, uterus, lung, exorbital lachrymal gland, Harderian gland, pancreas, salivary gland, skeletal muscle, myocardium, cardiac blood, bone marrow, lymph node, spleen, and thymus. As well, LSC was used to determine the total radioactivity in the whole blood and plasma.
The whole-body cryosectioning technique described by ([Ullberg, 1977]) was the basis for embedding and cryosectioning the rats assigned to this study. Each frozen carcass was shaved, and then the limbs and tail were removed prior to embedding. Chilled (4°C) 3% CMC (low viscosity) was utilized to provide a firm support of reinforced ice around each rat and for a secure attachment to the microtome stage. Upon thorough freezing of the embedding medium surrounding each rat, the frozen CMC block was removed from the freezing bath and four 3/8 inch holes were drilled into the block. One cryosection quality control standard (CQCS) was prepared with a known amount of radioactivity and at least 1 ml aliquots were added to each of the four drilled holes. CQCS data were utilized to evaluate the overall performance of the QWBA assay.
Each frozen rat was sagittally trimmed (50–100 μm) at −20°C until exposure of a few target tissues employing a Leica Cryomacrocut heavy-duty microtome (Leica Microsystems Inc.,). Disposable stainless steel Feather type H45L knives (Feather Safety Razor Co., Ltd.) were utilized for trimming and sectioning each frozen rat. Several thinner sections (50 μm) were discarded prior to obtaining multiple 50 μm sections at various cryosectioning levels for QWBA analysis. Upon the collection of at least 60 target tissues in multiple cryosectioning levels, the cryosections were kept in the Cryomacrocut cryochamber for a minimum of 18 h for dehydration depending upon the number of cryosections within the cryochamber. After dehydration was complete, the cryosections were transferred to ambient temperature for processing. Mounted whole-body cryosections and a set of 15 standards were sandwiched between a standard phosphor screen and an exposure cassette. All cryosections were exposed to the phosphor screen for 4-days in a cabinet protected with lead prior to scanning using a Typhoon PhosphorImager (Cytiva). MCID™ Analysis software (InterFocus Ltd.) was utilized to generate a calibration curve of the STD nominal concentrations (nCi/g) versus PhosphorImager response (counts/μm^2 minus background) by weighted (1/x) linear regression analysis ([Potchoiba et al., 1995]; [Potchoiba et al., 1998]). The linear regression curve was then utilized to determine the concentration (nCi/g) of total radioactivity in whole-body tissues and blood. Radioactivity concentrations were expressed as μg Eq/g based on the specific activity of the compound in the final dose formulations. […]

[1] = 24 h post single oral 100 mg/kg
[2] = 48 h post single oral 100 mg/kg

## CC/C=C\C/C=C\C/C=C\C/C=C\C/C=C\C/C=C\CCC(=O)O[C@H](CO[14CH2]CCCCCCCCCCCCCCC)COC(=O)CCCCC1CCSS1 (stereo partly shown) [[^14C]PPI-1011]
[1]
  Radioactivity concentration, Choroid Plexus: 9.85 μg equivalents/g
  Radioactivity concentration, Colliculus: 2.06 μg equivalents/g
  Radioactivity concentration, Diaphragm: 37.4 μg equivalents/g
  Radioactivity concentration, Epididymis: 40.4 μg equivalents/g
  Radioactivity concentration, Esophagus: 9.46 μg equivalents/g
  Radioactivity concentration, Exorbital Lacrimal Gland: 9.66 μg equivalents/g
  Radioactivity concentration, Gastric Mucosa: 48.7 μg equivalents/g
  Radioactivity concentration, Harderian Gland: 10.5 μg equivalents/g
  Radioactivity concentration, Intra-Orbital Lacrimal Gland: 7.56 μg equivalents/g
  Radioactivity concentration, Kidney: 24.7 μg equivalents/g
  Radioactivity concentration, Large Intestines: 180 μg equivalents/g
  Radioactivity concentration, Liver: 73.4 μg equivalents/g
  Radioactivity concentration, Lung: 30.2 μg equivalents/g
  Radioactivity concentration, Lymph Node: 17.4 μg equivalents/g
  Radioactivity concentration, Medulla Oblongata: 1.98 μg equivalents/g
  Radioactivity concentration, Muscle: 7.57 μg equivalents/g
  Radioactivity concentration, Myocardium: 31.0 μg equivalents/g
  Radioactivity concentration, Nasal Turbinates: 4.81 μg equivalents/g
  Radioactivity concentration, Ocular - Uveal Tract: 4.27 μg equivalents/g
  Radioactivity concentration, Ocular - Whole Eye: 1.14 μg equivalents/g
  Radioactivity concentration, Olfactory Bulb: 2.07 μg equivalents/g
  Radioactivity concentration, Pancreas: 24.8 μg equivalents/g
  Radioactivity concentration, Parotid Gland: 20.5 μg equivalents/g
  Radioactivity concentration, Pineal Gland: 10.8 μg equivalents/g
  Radioactivity concentration, Pituitary Gland: 16.7 μg equivalents/g
  Radioactivity concentration, Preputial Gland: 112 μg equivalents/g
  Radioactivity concentration, Prostate: 56.7 μg equivalents/g
  Radioactivity concentration, Renal Cortex: 26.8 μg equivalents/g
  Radioactivity concentration, Renal Medulla: 25.8 μg equivalents/g
  Radioactivity concentration, Salivary Gland: 21.3 μg equivalents/g
  Radioactivity concentration, Seminal Vesicles: 5.38 μg equivalents/g
  Radioactivity concentration, Skin - Non-Pigmented: 9.26 μg equivalents/g
  Radioactivity concentration, Small Intestines: 247 μg equivalents/g
  Radioactivity concentration, Spinal Cord: 1.75 μg equivalents/g
  Radioactivity concentration, Spleen: 46.3 μg equivalents/g
  Radioactivity concentration, Stomach: 10.8 μg equivalents/g
  Radioactivity concentration, Testis: 4.31 μg equivalents/g
  Radioactivity concentration, Thalamus: 1.71 μg equivalents/g
  Radioactivity concentration, Thymus: 9.79 μg equivalents/g
  Radioactivity concentration, Thyroid: 27.7 μg equivalents/g
  Radioactivity concentration, Whole Brain: 1.95 μg equivalents/g
[2]
  Radioactivity concentration, Adipose - Brown: 132 μg equivalents/g
  Radioactivity concentration, Adipose - Brown (Vessel Wall): 98.6 μg equivalents/g
  Radioactivity concentration, Adipose - Subcutaneous: 82.1 μg equivalents/g
  Radioactivity concentration, Adipose - Visceral: 111 μg equivalents/g
  Radioactivity concentration, Adrenal Gland: 201 μg equivalents/g
  Radioactivity concentration, Bladder Wall: 10.7 μg equivalents/g
  Radioactivity concentration, Blood - QWBA: 4.19 μg equivalents/g
  Radioactivity concentration, Bone Marrow: 15.7 μg equivalents/g
  Radioactivity concentration, Bone Surface: 0.508 μg equivalents/g
  Radioactivity concentration, Cecum: 34.3 μg equivalents/g
  Radioactivity concentration, Cerebellum: 2.60 μg equivalents/g
  Radioactivity concentration, Cerebrum: 2.23 μg equivalents/g
  Radioactivity concentration, Choroid Plexus: 14.4 μg equivalents/g
  Radioactivity concentration, Colliculus: 3.30 μg equivalents/g
  Radioactivity concentration, Diaphragm: 23.0 μg equivalents/g
  Radioactivity concentration, Epididymis: 6.81 μg equivalents/g
  Radioactivity concentration, Esophagus: 10.8 μg equivalents/g
  Radioactivity concentration, Exorbital Lacrimal Gland: 6.13 μg equivalents/g
  Radioactivity concentration, Gastric Mucosa: 37.5 μg equivalents/g
  Radioactivity concentration, Harderian Gland: 11.1 μg equivalents/g
  Radioactivity concentration, Intra-Orbital Lacrimal Gland: 6.64 μg equivalents/g
  Radioactivity concentration, Kidney: 24.6 μg equivalents/g
  Radioactivity concentration, Large Intestines: 19.1 μg equivalents/g
  Radioactivity concentration, Liver: 40.0 μg equivalents/g
  Radioactivity concentration, Lung: 22.9 μg equivalents/g
  Radioactivity concentration, Lymph Node: 20.0 μg equivalents/g
  Radioactivity concentration, Medulla Oblongata: 2.45 μg equivalents/g
  Radioactivity concentration, Muscle: 8.42 μg equivalents/g
  Radioactivity concentration, Myocardium: 26.6 μg equivalents/g
  Radioactivity concentration, Nasal Turbinates: 5.03 μg equivalents/g
  Radioactivity concentration, Ocular - Uveal Tract: 4.78 μg equivalents/g
  Radioactivity concentration, Ocular - Whole Eye: 1.30 μg equivalents/g
  Radioactivity concentration, Olfactory Bulb: 2.01 μg equivalents/g
  Radioactivity concentration, Pancreas: 28.0 μg equivalents/g
  Radioactivity concentration, Parotid Gland: 20.9 μg equivalents/g
  Radioactivity concentration, Pineal Gland: 16.4 μg equivalents/g
  Radioactivity concentration, Pituitary Gland: 19.2 μg equivalents/g
  Radioactivity concentration, Preputial Gland: 76.5 μg equivalents/g
  Radioactivity concentration, Prostate: 7.15 μg equivalents/g
  Radioactivity concentration, Renal Cortex: 24.3 μg equivalents/g
  Radioactivity concentration, Renal Medulla: 22.7 μg equivalents/g
  Radioactivity concentration, Salivary Gland: 22.9 μg equivalents/g
  Radioactivity concentration, Seminal Vesicles: 9.12 μg equivalents/g
  Radioactivity concentration, Skin - Non-Pigmented: 13.4 μg equivalents/g
